US10765114B2, “4-amino-6-(pyridyl and 2-substitutedphenyl)-picolinates and 6-amino-2-(pyridyl and 2-substitutedphenyl)-pyrimidine-4-carboxylates and their use as herbicides” (Dow AgroSciences LLC, priority 2013, dated 2020)
Like-named read-outs stand apart in the source and are kept apart here.

What was measured:
[1] = system: Key Grass and Sedge Weeds as well as Grass Crops; assay: Post-Emergent Test II (Table 6); assay type: in vivo; conditions: post-emergence, 336 h, 14 days after application; for pest or weed control at 70 g/ha: 70 g ai/ha; for pest or weed control at 140 g/ha: 140 g ai/ha
Outline: (§1)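 Seedlings are raised 7-21 days in Metro-Mix 360 (pH 6.0-6.8) under greenhouse conditions, then sprayed at the first or second true leaf stage. Application is 187 L/ha, with serial rates down to 1/16× of the highest. Plants are subirrigated, and percent injury is rated visually after 14 days.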

[2] = system: Key Broadleaf Weed and Crop Species; assay: Post-Emergent Test II (Table 5); assay type: in vivo; conditions: post-emergence, 336 h; for pest or weed control at 70 g/ha: application rate 70 (kg ai/ha; footnote: g ai/ha); for pest or weed control at 140 g/ha: application rate 140 (kg ai/ha; footnote: g ai/ha)
Outline: as §1

[3] = CYPSS, read-out: Visual Growth Reduction (%) 14 Days After Application CYPSS
[4] = DIGSA: crabgrass (Digitaria sanguinalis), read-out: Visual Growth Reduction (%) 14 Days After Application DIGSA
[5] = ECHSS, read-out: Visual Growth Reduction (%) 14 Days After Application ECHSS
[6] = ORYSS (crop), read-out: Visual Growth Reduction (%) 14 Days After Application ORYSS
[7] = SETFA: giant foxtail (Setaria faberi), read-out: Visual Growth Reduction (%) 14 Days After Application SETFA
[8] = SORVU: grain sorghum (Sorghum vulgare), read-out: Visual Growth Reduction (%) 14 Days After Application SORVU
[9] = TRZSS (crop), read-out: Visual Growth Reduction (%) 14 Days After Application TRZSS
[10] = ZEAMX: maize, corn (Zea mays), read-out: Visual Growth Reduction (%) 14 Days After Application ZEAMX
[11] = Abutilon theophrasti, ABUTH: velvetleaf (Abutilon theophrasti), read-out: Visual Growth Reduction (%) 14 Days After Application ABUTH
[12] = Amaranthus retroflexus, AMARE: redroot pigweed (Amaranthus retroflexus), read-out: Visual Growth Reduction (%) 14 Days After Application AMARE
[13] = Brassica napus, BRSSS: oilseed rape, canola (Brassica napus), read-out: Visual Growth Reduction (%) 14 Days After Application BRSSS
[14] = Chenopodium album, CHEAL: lambsquarters (Chenopodium album), read-out: Visual Growth Reduction (%) 14 Days After Application CHEAL
[15] = Euphorbia heterophylla, EPHHL: wild poinsettia (Euphorbia heterophylla), read-out: Visual Growth Reduction (%) 14 Days After Application EPHHL
[16] = Helianthus annuus, HELAN: sunflower (Helianthus annuus), read-out: Visual Growth Reduction (%) 14 Days After Application HELAN
[17] = Viola tricolor, VIOTR: wild pansy (Viola tricolor), read-out: Visual Growth Reduction (%) 14 Days After Application VIOTR

SMILES | pest or weed control at 70 g/ha [1, 3] [%] | pest or weed control at 140 g/ha [1, 3] [%] | pest or weed control at 70 g/ha [1, 4] [%] | pest or weed control at 140 g/ha [1, 4] [%] | pest or weed control at 70 g/ha [1, 5] [%] | pest or weed control at 140 g/ha [1, 5] [%] | pest or weed control at 70 g/ha [1, 6] [%] | pest or weed control at 140 g/ha [1, 6] [%] | pest or weed control at 70 g/ha [1, 7] [%] | pest or weed control at 140 g/ha [1, 7] [%] | pest or weed control at 70 g/ha [1, 8] [%] | pest or weed control at 140 g/ha [1, 8] [%] | pest or weed control at 70 g/ha [1, 9] [%] | pest or weed control at 140 g/ha [1, 9] [%] | pest or weed control at 70 g/ha [1, 10] [%] | pest or weed control at 140 g/ha [1, 10] [%] | pest or weed control at 70 g/ha [2, 11] [%] | pest or weed control at 140 g/ha [2, 11] [%] | pest or weed control at 70 g/ha [2, 12] [%] | pest or weed control at 140 g/ha [2, 12] [%] | other results
C=Cc1c(-c2cc(N)c(Cl)c(C(=O)O)n2)ccc(Cl)c1F [Compound 89, 4-Amino-3-chloro-6-(4-chloro-3-fluoro-2-vinylphenyl)picolinic acid] | 0 to 29 | 0 to 29 | 30 to 44 | 75 to 84 | 75 to 84 | 85 to 94 | 0 to 29 | 0 to 29 | 0 to 29 | 0 to 29 | 0 to 29 | 0 to 29 | 0 to 29 | 0 to 29 | 0 to 29 | 0 to 29 | 85 to 94 | 95 to 100 | 95 to 100 | 95 to 100 | pest or weed control at 70 g/ha [2, 13]: 95 to 100%; pest or weed control at 140 g/ha [2, 13]: 95 to 100%; pest or weed control at 70 g/ha [2, 14]: 95 to 100%; pest or weed control at 140 g/ha [2, 14]: 95 to 100%; pest or weed control at 70 g/ha [2, 15]: 30 to 44%; pest or weed control at 140 g/ha [2, 15]: 45 to 59%; pest or weed control at 70 g/ha [2, 16]: 95 to 100%; pest or weed control at 140 g/ha [2, 16]: 95 to 100%; pest or weed control at 70 g/ha [2, 17]: 45 to 59%; pest or weed control at 140 g/ha [2, 17]: 60 to 74%
COC(=O)c1nc(-c2ccc(I)c(F)c2C)cc(N)c1Cl [Compound 25, methyl 4-amino-3-chloro-6-(3-fluoro-4-Iodo-2-methylphenyl)picolinate] | 0 to 29 | 0 to 29 | 0 to 29 | 0 to 29 | 0 to 29 | 0 to 29 | 0 to 29 | 0 to 29 | 0 to 29 | 0 to 29 | 0 to 29 | 0 to 29 | 0 to 29 | 0 to 29 | 0 to 29 | 0 to 29 | 95 to 100 | 95 to 100 | 95 to 100 | 95 to 100 | pest or weed control at 70 g/ha [2, 13]: 60 to 74%; pest or weed control at 140 g/ha [2, 13]: 75 to 84%; pest or weed control at 70 g/ha [2, 14]: 85 to 94%; pest or weed control at 140 g/ha [2, 14]: 85 to 94%; pest or weed control at 70 g/ha [2, 15]: 0 to 29%; pest or weed control at 140 g/ha [2, 15]: 0 to 29%; pest or weed control at 70 g/ha [2, 16]: 60 to 74%; pest or weed control at 140 g/ha [2, 16]: 75 to 84%; pest or weed control at 70 g/ha [2, 17]: 0 to 29%; pest or weed control at 140 g/ha [2, 17]: 0 to 29%
